Laboratory results: patent US20240316038A1, “APOL1 INHIBITORS AND METHODS OF USE” (Maze Therapeutics, Inc., priority 2021, published 2024)

Legend:
APOL1 G2 [1] = target: T1, APOL1 G2 (Homo sapiens, UniProt O14791, DEL388-389); test: APOL1 calcium transport inhibition assay (GCaMP6f calcium influx, FLIPR) in HEK T-REx/GCaMP6f/APOL1 G2 K6.3 cells; assay type: cell-based; conditions: inhibition of APOL1-mediated calcium influx; geometric mean of at least 2 assay runs, † = single assay run (technical duplicate)
T1 construct: expressed in transfected cells; host or cells: HEK293 T-REx clonal lines: HEK T-REx/GCaMP6f/APOL1 G2 K6.3 in A1, HEK293/T-REx APOL1 G2/clone #2 in A2
T1 sequence (O14791 with tags, fused parts or gaps DEL388-389): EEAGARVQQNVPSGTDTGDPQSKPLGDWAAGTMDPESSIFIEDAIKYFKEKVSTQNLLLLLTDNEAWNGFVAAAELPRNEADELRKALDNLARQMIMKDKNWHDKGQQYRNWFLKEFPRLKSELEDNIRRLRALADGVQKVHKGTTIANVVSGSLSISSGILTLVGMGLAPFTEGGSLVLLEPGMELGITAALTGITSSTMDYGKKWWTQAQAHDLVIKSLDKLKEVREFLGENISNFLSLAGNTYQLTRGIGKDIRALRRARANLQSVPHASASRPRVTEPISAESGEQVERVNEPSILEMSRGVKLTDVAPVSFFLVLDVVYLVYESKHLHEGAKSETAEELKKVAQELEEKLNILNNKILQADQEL
How it was run: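 HEK293 cells stably expressing GCaMP6f, APOL1 G2 induced 6 h with doxycycline (20 ng/mL added), then washed into Ca2+-free Tyrode's buffer pH 7.4. Compounds (8-point dose response) preincubated 10 min at room temperature, then Ca2+ injected to 5 mM final and influx read on FLIPR. AC50 reported as geometric mean of runs.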

APOL1 G2 [2] = target: T1, APOL1 G2; test: Rescue of HEK293 cell death caused by overexpression of APOL1 (CellTiter-Glo luminescence), HEK293/T-REx APOL1 G2/clone #2; assay type: cell-based; conditions: reversal of cell death caused by overexpression of APOL1; geometric mean of at least 2 assay runs, † = single assay run (technical duplicate)
How it was run: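 Rescue EC50s come from four-parameter logistic fits, geometric mean of at least 2 runs on separate days, each in duplicate. Readout: CellTiter-Glo luminescence after 17 h at 37 °C of 5,000 HEK293/T-REx APOL1 G2 clone #2 cells/well, with 6 ng/mL doxycycline to induce APOL1 and 3-fold serial compound dilutions in 0.5% DMSO.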

| SMILES | AC50 (APOL1 G2 [1]) | EC50 (APOL1 G2 [2]) |
| --- | --- | --- |
| CS(=O)(=O)c1ccc(OC[C@@H](O)CN2CCCCC2Cc2cccc(Cl)c2)cc1 (single isomer, unassigned) [Compound 64, (2S)-1-((R) or (S)-2-(3-chlorobenzyl)piperidin-1-yl)-3-(4-(methylsulfonyl)phenoxy)propan-2-ol] | 570 nM | 1120 nM |
| COC1CCN(CCc2cccc(Cl)c2)CC1COc1ccc(S(C)(=O)=O)cc1 (single isomer, unassigned) [Compound 37, (3R,4R) or (3S,4S) or (3R,4S) or (3S,4R)-1-(3-chlorophenethyl)-4-methoxy-3-((4-(methylsulfonyl)phenoxy)methyl) piperidine] | 3840 nM | > 6150 nM |
| C[C@@H]1CN(CCc2cc(Cl)cc(C#N)c2)C[C@H]1COc1ccc(S(=O)(=O)C(C)(C)CO)cc1 [Compound 166, 3-chloro-5-{2-[(3S,4S)-3-{[4-(1-hydroxy-2-methylpropane-2-sulfonyl)phenoxy]methyl}-4-methylpyrrolidin-1-yl]ethyl}benzonitrile] | 256 nM | 17.9 nM |
| C[C@@H]1CN(CCc2cccc(Cl)c2)C[C@H]1COc1ccc(S(=O)(=O)CCO)cc1 (single isomer, unassigned) [Compound 113, 2-(4-{[(35,4S or 3R,4R)-1-[2-(3-chlorophenyl)ethyl]-4-methylpyrrolidin-3-yl]methoxy}benzene-sulfonyl)ethan-1-ol] | 907 nM | 1070 nM |
| CN(c1ccc(OCC(C)(O)CNCCc2cccc(Cl)c2)cc1)S(C)(=O)=O (single isomer, unassigned) [Compound 103, (R) or (S)-N-(4-(3-((3-chlorophenethyl)a-mino)-2-hydroxy-2-methylpropxy)phe-nyl)-N-methylmethanesulfon-amide] | 10900 nM | > 30000 nM |
| C[C@@H]1CN(CCc2cccc(Cl)c2)C[C@H]1COc1ccc(S(C)(=O)=O)cc1 [Compound 133, (35,4S)-1-[2-(3-chlorophenyl)ethyl]-3-[(4-methanesulfonylphenoxy)methyl]-4-methylpyrrolidine] | 38.3 nM | 135 nM |
| CS(=O)(=O)c1ccc(OC[C@H]2CCN(CCc3cccc(Cl)c3)C2)cc1 [Compound 51, (S)-1-(3-chlorophenethyl)-3-((4-(methylsulfonyl)phenoxy)methyl)pyrrolidine] | 727 nM | 1490 nM |
| CC1CC(COc2ccc(S(C)(=O)=O)cc2)CN1CCc1cccc(C#N)c1 (single isomer, unassigned) [Compound 140, 3-{2-[(2S,4R or 2R,4S or 2R,4R or 2S,4S)-4-[(4-methanesulfon-ylphenoxy)meth-yl]-2-methyl-pyrrolidin-1-yl]-ethyl}benzo-nitrile] | 107 nM | 45.9 nM |
| CN(c1ccc(NCC(O)CNCCc2cccc(Cl)c2)cc1)S(C)(=O)=O (single isomer, unassigned) [Compound 106, (R) or (S)-N-(4-((3-((3-chlorophenethyl)a-mino)-2-hydroxypropyl)ami-no)phenyl)-N-methylmethanesulfon-amide] | 2790 nM | 6240 nM |
| C[C@H]1CN(CCc2cccc(Cl)c2)C[C@@H]1COc1ccc(S(=O)(=O)CCCS(C)(=O)=O)cc1 (single isomer, unassigned) [Compound 176, (3R,4R or 3S,4S)-1-[2-(3-chlorophenyl)eth-yl]-3-{[4-(3-methanesulfonylpro-panesulfonyl)phe-noxy]methyl}-4-methylpyrrolidine] | 63 nM | < 47.2 nM |
| C[C@@H]1CN(CCc2cc(Cl)cc(C#N)c2)C[C@H]1COc1ccc(S(=O)(=O)CCS(C)(=O)=O)cc1 [Compound 108, 3-chloro-5-{2-[(3S,4S)-3-{[4-(2-methanesulfonyl-ethanesulfonyl)phenoxy]methyl}-4-methyl-pyrrolidin-1-yl]ethyl}benzonitrile] | 144 nM | 50.4 nM |
| C[C@@H]1C[C@H](COc2ccc(S(C)(=O)=O)cc2)CN1CCc1cc(C#N)cc(C#N)c1 [Compound 132] | 510 nM | 43.7 nM |
| C[C@@H]1CN(CC(O)c2cc(Cl)cc(C#N)c2)C[C@H]1COc1ccc(S(C)(=O)=O)cc1 (some centres unmarked) [Compound 120] | 461 nM | 195 nM |
| CS(=O)(=O)c1ccc(OCC2CCCCN(CCc3cccc(Cl)c3)C2)cc1 (single isomer, unassigned) [Compound 3, (S) or (R)-1-(3-chlorophenethyl)-3-((4-(methylsulfonyl)phenoxy)methyl)azepane] | 205 nM | 295 nM |
| COC(CN1CCC[C@H](COc2ccc(S(C)(=O)=O)cc2)C1)c1cccc(Cl)c1 (single isomer, unassigned) [Compound 23, (S)-1-((R)-2-(3-chlorophenyl)-2-methoxyethyl)-3-((4-(methylsulfonyl)phenoxy)methyl)piperidine or (S)-1-((S)-2-(3-chlorophenyl)-2-methoxyethyl)-3-((4-(methylsulfonyl)phenoxy)methyl)piperidine] | 640 nM | 677 nM |
| CS(=O)(=O)c1ccc(OC[C@H](O)CNCCc2cccc(Cl)c2)cc1 [Compound 94, (R)-1-((3-chlorophenethyl)a-mino)-3-(4-(methylsulfonyl)phe-noxy)propan-2-ol] | 1620 nM | 8370 nM |
| CC1CC(COc2ccc(S(C)(=O)=O)cc2)CN1CCc1cc(Cl)cc(C#N)c1 (single isomer, unassigned) [Compound 200, 3-chloro-5-(2-((2S,4R or 2R,4S or 2R,4R or 2S,4S)-2-methyl-4-((4-(methylsulfonyl)phenoxy)methyl)pyrrolidin-1-yl)ethyl)benzonitrile] | 836 nM | 1990 nM |
| Cc1cc(C#N)cc(CCN2C[C@@H](COc3ccc(S(C)(=O)=O)cc3)[C@H](C)C2)c1 [Compound 198, 3-{2-[(3S,4S)-3-[(4-methanesulfonylphenoxy)methyl]-4-methylpyrrolidin-1-yl]ethyl}-5-methylbenzonitrile] | 197 nM | 71.5 nM |
| CC1CNC(COc2ccc(S(C)(=O)=O)cc2)CN1CCc1cccc(Cl)c1 (single isomer, unassigned) [Compound 212, rac-cis or trans-(2R,5S)-1-[2-(3-chlorophenyl)ethyl]-5-[(4-methanesulfonylphenoxy)methyl]-2-methylpiperazine] | 2550 nM | > 14300 nM |
| CC(CN1C[C@@H](COc2ccc(S(C)(=O)=O)cc2)C[C@H]1C)c1cc(Cl)cc(C#N)c1 (single isomer, unassigned) [Compound 143, 3-chloro-5-[(2S or 2R)-1-[(2R, 4S)-4-[(4-meth-anesulfonyl-phenoxy)meth-yl]-2-methyl-pyrrolidin-1-yl]-propan-2-yl]-benzonitrile] | 3160 nM | 349 nM |
| C[C@@H]1CN(CCc2cc(F)cc(Cl)c2)C[C@H]1COc1ccc(S(C)(=O)=O)cc1 [Compound 181, (3S,4S)-1-[2-(3-chloro-5-fluorophenyl)ethyl]-3-[(4-methanesulfonylphenoxy)methyl]-4-methylpyrrolidine] | < 96.1 nM | 325 nM |
| CN(c1ccc(OC[C@@H](O)CNCCc2cccc(Cl)c2)cc1)S(C)(=O)=O [Compound 86, (S)-N-(4-(3-((3-chlorophenethyl)a-mino)-2-hydroxypropoxy)phe-nyl)-N-methylmethanesulfon-amide] | 557 nM | > 4110 nM |
